Structures are written as SMILES.

Assay [1] concerns human pancreatic carcinoma cell line (Capan-2). Kind of assay: In vivo tumor growth inhibition, Capan-2 xenograft in nude mice. Particulars: oral, 0.1 mL of a 30% (w/w) solution in sunflower oil once a day for 42 days. As to the method: In vivo measurements of tumor growth inhibition in mice were conducted to determine efficacy of BAP(+), BAP(−), and fractions thereof. A human pancreatic carcinoma cell line (Capan-2 available from European Collection of Cell Cultures, Salisbury UK) was cultivated at 37° C. in a humidified 5% CO2/95% air atmosphere using high glucose D-MEM medium supplemented with 20% fetal bovine serum, 2% penicillin/streptomycin and 1.25% L-glutamine. Before application, cells were harvested by trypsinisation for 30 minutes. Harvested Capan-2 cells were administered subcutaneously to each mouse as 1×10^7 cells in a mixture with a basement membrane preparation (BD MATRIGEL, available from I.T.A.-Interact, Prague CZ). Administration was in the rear right flank of Hsd:athymic nude-Fox n1nu mice (available from Anlab, Prague CZ). […]
Table 12 gives the percentage of tumor weight growth inhibition (% WGI) as compared to the control for various BAP mixtures including BAP(−), BAP(+), pooled fractions F1-F4, F5, a fraction comprising a pooled collection of the F5 sub-fractions enriched in more PCs comprising saturated fatty acids acyl residues (“F5A”), a fraction which comprising a pooled collection of F5 sub-fractions enriched in more PCs comprising unsaturated fatty acid acyl residues (“F5B”), and a fraction of BAP(+) possibly enriched in LPC's (“F5C”). Glycerophosphocholine (GPC) was also evaluated. […]

For the next assay, the target named is T1, SPHK1 kinase (Homo sapiens, UniProt Q9NYA1).
T1 construct: purchased Life Technologies
Briefly: FRET-peptide kinase inhibition (SELECTSCREEN Kinase Profiling Service). The format is biochemical. As to conditions: 10 μM solution, ATP at Km. As to the method:
(§1) Inhibition of various kinases was measured using fluorescence resonance energy transfer (FRET) analysis. Briefly, a kinase is used to transfer the γ-phosphate of ATP to a single tyrosine, serine, or threonine residue in a synthetic FRET-peptide in the presence of each tested fraction. A kinase inhibitor will prevent phosphorylation. FRET-peptides comprise a donor fluorophore and an acceptor fluorophore, where the acceptor fluorophore will only undergo fluorescence from the excitation wavelength of the donor fluorophore due to resonant energy transfer through the peptide. A development reagent is used to cleave the un-phosphorylated FRET-peptides. An uncleaved FRET-peptide (i.e., phosphorylated peptide) will therefore undergo measureable FRET of both acceptor and donor and be indicative of kinase inhibition. […] Because phosphorylation of FRET-peptides suppresses cleavage by the development reagent, calculation of the ratio of donor emission to acceptor emission after excitation of the donor fluorophore at approximately 400 nm is used to quantitate reaction progress. Low ratios indicate the FRET-peptide is phosphorylated (i.e., little kinase inhibition) and high ratios […] (i.e., kinase inhibition). The percent phosphorylation can therefore be calculated from the emission ratio based on controls for the maximum and minimum phosphorylation. The percent inhibition can be calculated based on the percent phosphorylation of a sample with each fraction as compared to the percent phosphorylation without each fraction.
(§2) The kinase inhibitory activity of various 10 μM solutions of various fractions was measured using the SELECTSCREEN Kinase Profiling Service available from Life Technologies. Unless otherwise indicated, the concentration of ATP in each well is the Michaelis-Menten constant (Km value-the concentration of ATP when the phosphorylation reaction velocity is equal half of the maximal velocity for the reaction). […] Z′ is a measure of statistical effect size to assess the quality of the assay. Z′>0.5 is indicative measurement separated from the background and a reliable assay result. The average % inhibition is representative of two independent measurements.

The next assay addresses T2, mTOR kinase (Homo sapiens, UniProt P42345).
T2 construct: purchased Life Technologies
The description is as above. The class given is biochemical. Particulars: kinase FRAP1 (mTOR); 10 μM solution; ATP at Km. The procedure:
as §1, §2

Assay [2] addresses T3, various kinases (Homo sapiens, UniProt O14965).
T3 construct: purchased Life Technologies
T3 sequence (O14965 1-403): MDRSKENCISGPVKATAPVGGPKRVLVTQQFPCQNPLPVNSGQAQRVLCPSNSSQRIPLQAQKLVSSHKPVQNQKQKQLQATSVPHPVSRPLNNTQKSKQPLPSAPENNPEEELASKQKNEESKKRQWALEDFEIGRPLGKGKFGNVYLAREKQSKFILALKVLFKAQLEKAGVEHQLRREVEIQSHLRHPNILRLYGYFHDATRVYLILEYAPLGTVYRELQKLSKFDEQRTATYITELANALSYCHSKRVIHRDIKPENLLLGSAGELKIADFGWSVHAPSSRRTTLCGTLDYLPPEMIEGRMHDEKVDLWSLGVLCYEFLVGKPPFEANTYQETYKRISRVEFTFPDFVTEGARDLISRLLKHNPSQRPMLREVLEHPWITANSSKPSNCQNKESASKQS
The assay is described as above. The class given is biochemical. As to conditions: kinase AURKA (Aurora A); 10 μM solution; ATP at Km. The procedure: as §1, §2

In assay [3] the target is T4, various kinases (Homo sapiens, UniProt P41279).
T4 construct: purchased Life Technologies
Described as above. The class given is biochemical. As to conditions: kinase MAP3K8 (COT); 10 μM solution; ATP concentration of 100 μM. As to the method:
as §1, §2

For assay [4], the target named is T5, various kinases (Homo sapiens, UniProt P48736).
T5 construct: purchased Life Technologies
Described as above. The format is biochemical. As to conditions: kinase PIK3CG (p110 gamma); 10 μM solution; ATP at Km. As to the method: as §1, §2

Assay [5] concerns the target T6, various kinases (Homo sapiens, UniProt Q8TF76).
T6 construct: purchased Life Technologies
T6 sequence (Q8TF76 1-798): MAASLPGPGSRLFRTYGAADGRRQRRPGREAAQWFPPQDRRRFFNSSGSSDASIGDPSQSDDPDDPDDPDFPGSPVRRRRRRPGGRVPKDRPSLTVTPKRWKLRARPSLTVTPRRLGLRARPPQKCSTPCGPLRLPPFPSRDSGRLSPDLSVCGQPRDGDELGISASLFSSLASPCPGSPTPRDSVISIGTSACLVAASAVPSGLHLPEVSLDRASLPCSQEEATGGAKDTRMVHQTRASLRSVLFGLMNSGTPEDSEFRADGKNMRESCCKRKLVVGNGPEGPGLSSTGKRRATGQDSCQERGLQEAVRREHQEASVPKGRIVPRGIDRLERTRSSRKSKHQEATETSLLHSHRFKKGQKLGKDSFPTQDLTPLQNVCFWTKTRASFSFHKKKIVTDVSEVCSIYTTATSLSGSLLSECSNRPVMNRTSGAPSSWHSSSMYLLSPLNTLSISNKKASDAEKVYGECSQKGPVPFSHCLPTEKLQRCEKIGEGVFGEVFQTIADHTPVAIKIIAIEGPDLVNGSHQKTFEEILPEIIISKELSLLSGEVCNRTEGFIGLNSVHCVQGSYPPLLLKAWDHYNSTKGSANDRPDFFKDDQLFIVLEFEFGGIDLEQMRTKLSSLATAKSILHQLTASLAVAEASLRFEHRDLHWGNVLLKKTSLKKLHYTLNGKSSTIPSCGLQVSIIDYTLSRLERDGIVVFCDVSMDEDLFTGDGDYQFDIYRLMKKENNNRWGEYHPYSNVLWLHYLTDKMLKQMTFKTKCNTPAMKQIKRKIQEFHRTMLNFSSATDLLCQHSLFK
The assay is described as above. The class given is biochemical. Particulars: kinase GSG2 (Haspin); 10 μM solution; ATP at Km. The procedure: as §1, §2

The target of assay [6] is T7, various kinases (Homo sapiens, UniProt Q96GD4).
T7 construct: purchased Life Technologies
Described as above. As to conditions: kinase AURKB (Aurora B); 10 μM solution; ATP at Km. The class given is biochemical. The procedure: as §1, §2

Another assay deals with T8, ABL1 M351T (Homo sapiens, UniProt P00519, M351T).
T8 construct: purchased Life Technologies
Briefly: LANTHASCREEN Eu Kinase Binding Assay. As to conditions: 10 μM solutions, two independent measurements. As to the method:
(§3) Measurement of inhibition of various kinases was also performed by binding a tracer to a kinase and the addition of Europium labeled anti-tag antibodies. When bound to the same kinase, the tracer and Europium interact through FRET and fluoresce. Binding of the tracer and antibody to a kinase results in a high degree of FRET, whereas displacement of the tracer with a kinase inhibitor results in a loss of FRET. This method of measurement removes the cleavage step necessary in the above FRET measurement.
(§4) The kinase inhibitory activity of various 10 μM solutions of various fractions was measured (LANTHASCREEN Eu Kinase Binding Assay Profiling Service available from Life Technologies). In these measurements, greater percent displacement indicates greater kinase inhibition. […] The average % displacement is representative of two independent measurements.
(In general: TR-FRET usually uses a lanthanide donor and a delayed reading to cut background.)

For another assay, the target named is T9, ALK C1156Y (Homo sapiens, UniProt Q9UM73, C1156Y).
T9 construct: purchased Life Technologies
Briefly: LANTHASCREEN Eu Kinase Binding Assay. As to conditions: 10 μM solutions, two independent measurements. The procedure:
as §3, §4

The next assay deals with T10, EGFR (ErbB1) d746-750 (Homo sapiens, UniProt P00533, DEL746-750).
T10 construct: purchased Life Technologies
Kind of assay: LANTHASCREEN Eu Kinase Binding Assay. As to conditions: 10 μM solutions, two independent measurements. As to the method: as §3, §4

For the next assay, the target named is T11, KIT D816H (Homo sapiens, UniProt P10721, D816H).
T11 construct: purchased Life Technologies
Briefly: LANTHASCREEN Eu Kinase Binding Assay. Particulars: 10 μM solutions, two independent measurements. The procedure: as §3, §4

In a further assay the target is T12, KIT N822K (Homo sapiens, UniProt P10721, N822K).
T12 construct: purchased Life Technologies
Kind of assay: LANTHASCREEN Eu Kinase Binding Assay. Particulars: 10 μM solutions, two independent measurements. As to the method:
as §3, §4

A further assay addresses T13, KIT Y823D (Homo sapiens, UniProt P10721, Y823D).
T13 construct: purchased Life Technologies
Briefly: LANTHASCREEN Eu Kinase Binding Assay. As to conditions: 10 μM solutions, two independent measurements. As to the method: as §3, §4

The target in another assay is T14, TTK (Homo sapiens, UniProt P33981).
T14 construct: purchased Life Technologies
T14 sequence (P33981 1-857): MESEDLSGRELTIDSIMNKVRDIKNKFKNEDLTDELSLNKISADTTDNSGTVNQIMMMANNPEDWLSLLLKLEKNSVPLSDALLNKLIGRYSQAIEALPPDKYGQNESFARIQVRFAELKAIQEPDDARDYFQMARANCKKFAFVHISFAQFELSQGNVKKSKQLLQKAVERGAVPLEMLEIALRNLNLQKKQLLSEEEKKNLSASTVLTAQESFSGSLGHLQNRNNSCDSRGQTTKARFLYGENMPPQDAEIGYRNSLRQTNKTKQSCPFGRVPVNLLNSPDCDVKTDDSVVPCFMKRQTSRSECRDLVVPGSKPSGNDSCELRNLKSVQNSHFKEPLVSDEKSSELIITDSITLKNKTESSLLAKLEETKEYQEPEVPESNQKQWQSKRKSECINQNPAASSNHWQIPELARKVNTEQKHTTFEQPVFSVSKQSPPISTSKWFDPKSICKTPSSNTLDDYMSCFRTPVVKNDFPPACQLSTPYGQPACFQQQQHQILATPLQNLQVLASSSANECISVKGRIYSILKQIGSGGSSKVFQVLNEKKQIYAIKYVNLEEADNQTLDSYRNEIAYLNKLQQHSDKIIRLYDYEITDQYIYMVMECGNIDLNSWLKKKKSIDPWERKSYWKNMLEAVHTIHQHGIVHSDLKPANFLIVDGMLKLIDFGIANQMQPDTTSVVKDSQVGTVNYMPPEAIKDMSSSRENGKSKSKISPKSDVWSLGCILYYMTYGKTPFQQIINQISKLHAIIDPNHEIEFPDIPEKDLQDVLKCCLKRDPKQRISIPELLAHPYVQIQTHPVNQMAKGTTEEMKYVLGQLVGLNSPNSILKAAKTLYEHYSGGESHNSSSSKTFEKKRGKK
Kind of assay: LANTHASCREEN Eu Kinase Binding Assay. Particulars: 10 μM solutions, two independent measurements. The procedure: as §3, §4

The target of another assay is T15, WEE1 (Homo sapiens, UniProt P30291).
T15 construct: purchased Life Technologies
Kind of assay: LANTHASCREEN Eu Kinase Binding Assay. As to conditions: 10 μM solutions, two independent measurements. As to the method:
as §3, §4

T9 sequence (Q9UM73 19-1620 C1156Y): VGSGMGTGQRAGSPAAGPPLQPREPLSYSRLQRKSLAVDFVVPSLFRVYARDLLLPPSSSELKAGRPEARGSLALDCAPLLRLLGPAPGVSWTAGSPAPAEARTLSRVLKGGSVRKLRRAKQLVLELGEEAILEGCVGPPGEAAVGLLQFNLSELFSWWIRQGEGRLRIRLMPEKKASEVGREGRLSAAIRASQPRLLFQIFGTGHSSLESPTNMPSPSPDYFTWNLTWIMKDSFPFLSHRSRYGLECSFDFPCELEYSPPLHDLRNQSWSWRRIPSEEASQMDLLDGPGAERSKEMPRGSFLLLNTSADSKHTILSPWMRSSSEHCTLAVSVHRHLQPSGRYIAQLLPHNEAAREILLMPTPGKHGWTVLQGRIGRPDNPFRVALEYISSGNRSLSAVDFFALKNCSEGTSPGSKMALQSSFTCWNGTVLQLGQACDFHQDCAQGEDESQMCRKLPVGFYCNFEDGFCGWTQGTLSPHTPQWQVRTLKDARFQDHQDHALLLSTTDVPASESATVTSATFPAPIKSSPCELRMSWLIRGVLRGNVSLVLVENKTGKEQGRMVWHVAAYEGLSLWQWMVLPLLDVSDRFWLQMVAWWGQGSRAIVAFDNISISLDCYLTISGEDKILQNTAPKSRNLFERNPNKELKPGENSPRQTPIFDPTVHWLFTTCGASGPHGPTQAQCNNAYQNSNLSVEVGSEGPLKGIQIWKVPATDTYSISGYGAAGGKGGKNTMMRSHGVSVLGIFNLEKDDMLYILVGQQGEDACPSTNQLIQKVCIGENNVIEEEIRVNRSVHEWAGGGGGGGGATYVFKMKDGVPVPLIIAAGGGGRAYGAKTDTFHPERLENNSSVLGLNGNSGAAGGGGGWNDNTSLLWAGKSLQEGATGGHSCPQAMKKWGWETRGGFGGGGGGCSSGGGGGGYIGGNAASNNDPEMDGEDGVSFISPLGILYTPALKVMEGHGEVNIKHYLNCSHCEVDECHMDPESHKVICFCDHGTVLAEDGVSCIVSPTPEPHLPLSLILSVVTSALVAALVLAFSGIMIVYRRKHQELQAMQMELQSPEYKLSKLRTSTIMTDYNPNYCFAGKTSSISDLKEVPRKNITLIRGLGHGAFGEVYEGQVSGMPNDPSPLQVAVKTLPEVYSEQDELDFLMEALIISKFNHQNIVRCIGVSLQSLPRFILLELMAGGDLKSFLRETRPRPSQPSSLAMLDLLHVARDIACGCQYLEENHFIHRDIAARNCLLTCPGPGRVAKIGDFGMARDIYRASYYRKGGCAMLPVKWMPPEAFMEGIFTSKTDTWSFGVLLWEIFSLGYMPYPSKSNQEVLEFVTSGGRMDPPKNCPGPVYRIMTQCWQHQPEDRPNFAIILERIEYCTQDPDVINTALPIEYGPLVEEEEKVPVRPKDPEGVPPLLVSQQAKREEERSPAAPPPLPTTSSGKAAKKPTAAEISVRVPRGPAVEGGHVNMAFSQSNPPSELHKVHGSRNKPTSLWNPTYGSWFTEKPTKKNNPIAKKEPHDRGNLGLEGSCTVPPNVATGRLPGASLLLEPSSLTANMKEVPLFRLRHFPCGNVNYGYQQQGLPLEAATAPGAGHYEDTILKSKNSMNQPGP
T11 sequence (P10721 26-976 D816H): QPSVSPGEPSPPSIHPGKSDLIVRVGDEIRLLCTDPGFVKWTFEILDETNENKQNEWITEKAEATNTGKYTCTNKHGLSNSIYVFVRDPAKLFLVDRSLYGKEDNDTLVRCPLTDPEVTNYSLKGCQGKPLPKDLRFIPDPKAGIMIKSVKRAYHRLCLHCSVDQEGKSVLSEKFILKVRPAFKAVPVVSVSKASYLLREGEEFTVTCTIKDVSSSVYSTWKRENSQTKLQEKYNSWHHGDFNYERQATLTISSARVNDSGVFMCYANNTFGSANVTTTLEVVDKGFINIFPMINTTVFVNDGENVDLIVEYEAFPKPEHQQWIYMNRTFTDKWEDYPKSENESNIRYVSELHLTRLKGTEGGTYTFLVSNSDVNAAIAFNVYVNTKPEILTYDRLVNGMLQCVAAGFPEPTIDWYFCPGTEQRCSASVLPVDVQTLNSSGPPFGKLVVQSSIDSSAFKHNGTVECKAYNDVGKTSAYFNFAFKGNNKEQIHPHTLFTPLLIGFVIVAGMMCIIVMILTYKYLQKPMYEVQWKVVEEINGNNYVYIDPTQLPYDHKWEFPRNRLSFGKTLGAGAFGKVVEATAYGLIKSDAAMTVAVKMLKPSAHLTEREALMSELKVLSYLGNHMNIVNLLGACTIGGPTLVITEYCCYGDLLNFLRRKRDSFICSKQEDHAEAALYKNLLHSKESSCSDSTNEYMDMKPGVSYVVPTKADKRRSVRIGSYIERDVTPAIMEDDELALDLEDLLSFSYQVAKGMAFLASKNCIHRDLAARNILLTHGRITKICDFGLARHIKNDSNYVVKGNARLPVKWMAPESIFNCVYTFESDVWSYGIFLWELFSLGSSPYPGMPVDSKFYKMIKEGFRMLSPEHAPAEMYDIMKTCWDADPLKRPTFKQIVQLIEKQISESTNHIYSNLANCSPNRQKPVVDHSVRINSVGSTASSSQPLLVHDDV
T4 sequence (P41279 whole entry): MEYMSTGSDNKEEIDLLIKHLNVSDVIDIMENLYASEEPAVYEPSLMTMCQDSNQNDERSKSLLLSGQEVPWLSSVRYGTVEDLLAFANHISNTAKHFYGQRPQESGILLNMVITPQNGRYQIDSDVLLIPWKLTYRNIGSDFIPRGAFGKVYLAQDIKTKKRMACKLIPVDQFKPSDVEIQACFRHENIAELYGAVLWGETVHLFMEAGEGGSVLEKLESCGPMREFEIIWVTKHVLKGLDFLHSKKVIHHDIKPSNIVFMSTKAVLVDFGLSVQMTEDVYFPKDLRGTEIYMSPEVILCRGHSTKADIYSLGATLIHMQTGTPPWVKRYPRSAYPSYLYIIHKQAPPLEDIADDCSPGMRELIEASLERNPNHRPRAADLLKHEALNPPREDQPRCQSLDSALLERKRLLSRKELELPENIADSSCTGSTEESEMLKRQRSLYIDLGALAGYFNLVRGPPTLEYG
T13 sequence (P10721 26-976 Y823D): as the sequence (P10721 26-976 D816H) above, with H791D, Y798D counted along it
T15 sequence (P30291 whole entry): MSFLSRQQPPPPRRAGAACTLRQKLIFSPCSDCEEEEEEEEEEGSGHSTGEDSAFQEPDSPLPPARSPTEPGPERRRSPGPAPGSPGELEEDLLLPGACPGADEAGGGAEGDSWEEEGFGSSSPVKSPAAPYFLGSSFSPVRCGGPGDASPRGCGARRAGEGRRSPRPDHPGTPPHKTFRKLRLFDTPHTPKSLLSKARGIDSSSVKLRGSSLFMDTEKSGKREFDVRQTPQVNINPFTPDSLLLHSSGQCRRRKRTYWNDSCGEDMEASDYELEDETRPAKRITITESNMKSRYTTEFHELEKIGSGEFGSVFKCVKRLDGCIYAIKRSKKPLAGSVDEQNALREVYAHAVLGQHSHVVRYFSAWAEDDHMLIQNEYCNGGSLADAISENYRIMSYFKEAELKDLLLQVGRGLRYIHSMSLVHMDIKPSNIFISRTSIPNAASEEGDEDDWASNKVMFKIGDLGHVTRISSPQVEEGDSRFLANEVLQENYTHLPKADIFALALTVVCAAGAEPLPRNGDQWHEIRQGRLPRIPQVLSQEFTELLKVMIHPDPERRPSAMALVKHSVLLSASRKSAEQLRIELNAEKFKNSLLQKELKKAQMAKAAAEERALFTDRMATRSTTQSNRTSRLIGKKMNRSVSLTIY
T5 sequence (P48736 whole entry): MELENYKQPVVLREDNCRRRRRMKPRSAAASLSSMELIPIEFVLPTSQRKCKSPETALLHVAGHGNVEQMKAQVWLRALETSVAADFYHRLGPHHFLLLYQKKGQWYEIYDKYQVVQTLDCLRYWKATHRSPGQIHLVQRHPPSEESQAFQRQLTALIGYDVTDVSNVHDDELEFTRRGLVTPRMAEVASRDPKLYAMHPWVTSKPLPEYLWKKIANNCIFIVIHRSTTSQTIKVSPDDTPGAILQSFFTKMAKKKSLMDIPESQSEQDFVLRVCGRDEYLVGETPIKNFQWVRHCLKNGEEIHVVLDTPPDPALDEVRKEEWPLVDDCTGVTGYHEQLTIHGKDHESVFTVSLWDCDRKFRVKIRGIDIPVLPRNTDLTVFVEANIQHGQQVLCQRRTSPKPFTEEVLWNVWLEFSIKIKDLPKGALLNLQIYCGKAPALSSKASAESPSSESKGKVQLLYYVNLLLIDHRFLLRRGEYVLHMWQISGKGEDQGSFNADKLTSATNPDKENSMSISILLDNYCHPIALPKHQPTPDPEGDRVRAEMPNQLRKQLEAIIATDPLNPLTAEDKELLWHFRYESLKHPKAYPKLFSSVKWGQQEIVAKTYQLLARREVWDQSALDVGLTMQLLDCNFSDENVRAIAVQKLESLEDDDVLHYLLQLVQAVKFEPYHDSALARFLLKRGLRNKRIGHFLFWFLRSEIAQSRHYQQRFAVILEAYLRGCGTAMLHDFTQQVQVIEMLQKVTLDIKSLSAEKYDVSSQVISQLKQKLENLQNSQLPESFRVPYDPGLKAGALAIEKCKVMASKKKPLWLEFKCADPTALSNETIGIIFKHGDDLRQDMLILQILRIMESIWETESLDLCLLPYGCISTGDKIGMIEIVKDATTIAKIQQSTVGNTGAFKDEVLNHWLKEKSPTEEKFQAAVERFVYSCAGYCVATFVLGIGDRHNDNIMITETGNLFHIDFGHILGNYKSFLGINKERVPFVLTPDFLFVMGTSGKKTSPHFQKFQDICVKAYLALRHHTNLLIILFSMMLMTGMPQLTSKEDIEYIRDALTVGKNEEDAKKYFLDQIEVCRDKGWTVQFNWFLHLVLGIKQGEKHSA
T12 sequence (P10721 26-976 N822K): as the sequence (P10721 26-976 D816H) above, with H791D, N797K counted along it

On to `C[N+](C)(C)CCOP(=O)([O-])OC[C@H](O)CO` [GPC, glycerophosphocholine], for which the “% WGI (percentage of tumor weight growth inhibition as compared to the control)” value in assay [1] was −41.9%. Moreover, the “Average % Inhibition” value is listed as −5% at SPHK1 kinase; −1% at mTOR kinase; 22% at various kinases [2]; 7% on various kinases [3]; 2% at various kinases [4]; 14% at various kinases [5]. For the same molecule, the “Average % Inhibition” value on various kinases [6] is listed as 13%. Moreover, the “Average % Displacement” value is listed as 4% on ABL1 M351T; 4% on ALK C1156Y; −1% at EGFR (ErbB1) d746-750; 1% on KIT D816H; −1% on KIT N822K; 2% on KIT Y823D. Further, the “Average % Displacement” value on TTK is on record as 24%; at WEE1, 5%.

Values taken from US12263181B2, “Phospholipid compositions” (MACHAVERT PHARMACEUTICALS LLC, priority 2016, dated 2025).
